Data set [1] relates to T47D breast cancer cell line. Kind of data set: Cytotoxicity MTT assay, T47D. The data set is classed as cell-based, human. The note with it: for IC50: MTT, 48 hours; for activity against T47D in two-dose screen: 10 µM and 50 µM. As for the experimental part:
(§1) T47D (ATCC HTB-133) was purchased from Biomedia (Thailand) Co., LTD. L929 (ATCC CCL-1) was received as a gift from Prof. Tanapat Palaga, Department of Microbiology, Faculty of Science, Chulalongkorn University, Bangkok, Thailand. The cells were cultured in Dulbecco's Modified Eagle's Medium (DMEM; Gibco) supplemented with 10% fetal bovine serum (FBS; HyClone), 100 U mL^−1 penicillin and 100 µg mL^−1 streptomycin (Gibco) at 37 °C with 5% CO2.
(§2) The antiproliferative activity was determined by MTT assay. Briefly, the cells were plated into a 96-well microplate at the density of 10 000 cells per well. The cells were allowed to grow overnight before treated with the solutions of compounds in culture medium at the designated concentrations for 48 hours. The medium was then replaced with MTT solution (0.5 mg mL^−1 MTT in culture medium) and incubated for 3 hours. A 100 µL of DMSO was used to dissolve the produced formazan. Absorbance at 570 nm was then measured using a microplate reader (Varioskan™ LUX multimode microplate reader, Thermo Scientific™). Percent viability was calculated relative to the vehicle control (DMSO).
In general terms: Tetrazolium dyes change colour on reduction, which living cells bring about.

A further data set deals with T1, Human CYP19 (aromatase) (Homo sapiens, UniProt P11511).
T1 construct: purchased GENTEST, Woburn, MA 456260; host or cells: baculovirus/insect cells
T1 sequence (P11511 1-503): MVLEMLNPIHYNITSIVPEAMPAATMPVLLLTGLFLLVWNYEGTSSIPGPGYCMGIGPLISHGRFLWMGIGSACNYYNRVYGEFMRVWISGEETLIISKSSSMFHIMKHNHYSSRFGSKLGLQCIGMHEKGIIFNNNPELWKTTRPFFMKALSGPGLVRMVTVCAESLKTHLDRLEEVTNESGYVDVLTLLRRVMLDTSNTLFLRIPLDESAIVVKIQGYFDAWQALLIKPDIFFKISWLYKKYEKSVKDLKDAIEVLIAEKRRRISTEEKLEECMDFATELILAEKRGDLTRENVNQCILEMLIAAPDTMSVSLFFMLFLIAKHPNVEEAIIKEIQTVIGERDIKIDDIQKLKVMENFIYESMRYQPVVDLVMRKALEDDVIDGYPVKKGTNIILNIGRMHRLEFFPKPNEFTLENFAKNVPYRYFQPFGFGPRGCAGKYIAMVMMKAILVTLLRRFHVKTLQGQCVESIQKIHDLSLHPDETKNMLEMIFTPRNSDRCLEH
Kind of data set: Aromatase inhibition assay (DBF fluorometric substrate). The data set is classed as biochemical. The note with it: active defined as IC50 < 12.5 µM. The procedure: Aromatase enzyme was purchased from GENTEST, Woburn, MA01801, USA (Supersom human CYP19+oxidoreductase, baculovirus/insect cell-expressed; Product No. 456260). The aromatase inhibitory activity was performed using Human CYP19 enzymes and DBF as a fluorometric substrate as described by Stresser, et al.[41] with minor modifications. The mixture, containing 100 µL of cofactor/serial dilution buffer was pre-incubated in 37 °C for 10 min. […] After incubation at 37 °C for 30 min, the reaction was stopped by addition of 50 µL of 2.2 M NaOH. Fluorescence signal was monitored using an excitation wavelength of 490 nm and emission wavelength of 530 nm.

Data set [2] concerns NCI60 human cell line panel. Kind of data set: NCI60 one-dose screen. It is filed as cell-based. The note with it: 10 µM single dose. The procedure:
The one-dose experimental protocol followed the method described in this literature.[28] First, all compounds were tested at a single concentration (10 µM) across the entire NCI60 panel. The results of this assay indicate the growth relative to no-drug control and the number of cells at time zero. This method allows for the detection of growth inhibition (values between 0 to 100) and lethality (value below 0).

Data set [3] in a line: Cytotoxicity MTT assay, L929. The note with it: mouse, L929 fibroblast cells; MTT, 48 hours. It is filed as cell-based, mouse. As for the experimental part: as §1, §2
The subject of data set [4] is L929 normal mouse fibroblast cell line. As to the kind of experiment: Cytotoxicity MTT assay, L929. The note with it: IC50 (L929)/IC50 (T47D). The data set is classed as cell-based. As for the experimental part: as §1, §2

The record followed here is PMC12203311, “Design, synthesis, in silico and in vitro evaluation of pyrrole–indole hybrids as dual tubulin and aromatase inhibitors with potent anticancer activities” (RSC Advances, 2025).

Turning to `N.N.[Cl][Pt][Cl]` [Cisplatin, reference compound], the IC50 (in general, the concentration needed to halve the response being measured) in data set [1] is greater than 100 µM.
Take `O=C(N/N=C/c1ccco1)c1[nH]c2ccc(Br)cc2c1-c1ccccc1` [Derivative 1a, reference compound]: the IC50 at Human CYP19 (aromatase) was determined as 11.3 ± 1.7 µM.
`O=C(N/N=C/c1cccs1)c1[nH]c2ccc(Br)cc2c1-c1ccccc1` [Derivative 2a, reference compound]: on Human CYP19 (aromatase), the IC50 is greater than 12.5 µM and the “aromatase inhibition” value is recorded as “lacked aromatase inhibition”.
Consider `CCOC(=O)c1cc[nH]c1/C=N/NC(=O)c1[nH]c2ccc(Br)cc2c1-c1ccccc1` [Derivative 3k, Ethyl (E)-2-((2-(5-bromo-3-phenyl-1H-indole-2-carbonyl)hydrazono)methyl)-1H-pyrrole-3-carboxylate], for which the “NCI mean (mean growth percentage over the panel)” value in data set [2] was 49%. In addition, the concentration for half-maximal inhibition (IC50) in data set [1] (Homo sapiens, T47D) was determined as 10.6 ± 1.1 µM; against Human CYP19 (aromatase), 0.018 ± 0.002 µM. This compound also came in with an IC50 at 48 h in data set [3] of 15 ± 8.9 µM. For the same compound, the “Selectivity index (SI)” value in data set [4] amounted to 1.42.
In the case of `O=C(O)c1ccc(/C=N/NC(=O)c2[nH]c3ccc(Br)cc3c2-c2ccccc2)[nH]1` [Derivative 3l, (E)-5-((2-(5-Bromo-3-phenyl-1H-indole-2-carbonyl)hydrazono)methyl)-1H-pyrrole-2-carboxylic acid], the “growth inhibition in the single dose experiment” value in data set [2] was “mild effects”. The “activity against T47D in two-dose screen” value in data set [1] is given as “weak activity”. Further, at Human CYP19 (aromatase), the IC50 was greater than 12.5 µM and the “aromatase inhibition” value is “inactive against aromatase”.
The like results for `O=C(O)c1c[nH]c(/C=N/NC(=O)c2[nH]c3ccc(Br)cc3c2-c2ccccc2)c1` [Derivative 3m, (E)-5-((2-(5-Bromo-3-phenyl-1H-indole-2-carbonyl)hydrazono)methyl)-1H-pyrrole-3-carboxylic acid] were, in that order, “mild effects”, “weak activity”, greater than 12.5 µM and “inactive against aromatase”.
With `O=C(N/N=C/c1cc(C(=O)N2CCOCC2)c[nH]1)c1[nH]c2ccc(Br)cc2c1-c1ccccc1` [Derivative 3o, (E)-5-Bromo-N′-((4-(morpholine-4-carbonyl)-1H-pyrrol-2-yl)methylene)-3-phenyl-1H-indole-2-carbohydrazide], the “NCI mean (mean growth percentage over the panel)” value in data set [2] came out at 45%. The IC50 is 14.9 ± 1 µM in data set [1] (Homo sapiens, T47D) and 1.6 ± 0.4 µM at Human CYP19 (aromatase). In data set [3], the IC50 at 48 h came out at 43.2 ± 9.9 µM.
In the case of `O=C(O)c1cc(/C=N/NC(=O)c2[nH]c3ccc(Br)cc3c2-c2ccccc2)c[nH]1` [Derivative 3w, (E)-4-((2-(5-Bromo-3-phenyl-1H-indole-2-carbonyl)hydrazono)methyl)-1H-pyrrole-2-carboxylic acid], the “activity against T47D in two-dose screen” value in data set [1] is on record as “weak activity”. Besides, at Human CYP19 (aromatase), the IC50 was greater than 12.5 µM and the “aromatase inhibition” value is “inactive against aromatase”.
On to `O=C(N/N=C/c1c[nH]c(C(=O)N2CCOCC2)c1)c1[nH]c2ccc(Br)cc2c1-c1ccccc1` [Derivative 3x, (E)-5-Bromo-N′-((5-(morpholine-4-carbonyl)-1H-pyrrol-3-yl)methylene)-3-phenyl-1H-indole-2-carbohydrazide], for which, in data set [1], the “activity against T47D in two-dose screen” value is “weak activity”. The compound further yielded an IC50 against Human CYP19 (aromatase) of 3.7 ± 0.6 µM.
